One assay concerns the target T1, recombinant rat FAAH (Rattus norvegicus, UniProt P97612).
T1 construct: expressed in transfected cells; host or cells: COS-7 cells, transient, pcDNA3; dounce-homogenised cell extract
T1 sequence (P97612 1-579): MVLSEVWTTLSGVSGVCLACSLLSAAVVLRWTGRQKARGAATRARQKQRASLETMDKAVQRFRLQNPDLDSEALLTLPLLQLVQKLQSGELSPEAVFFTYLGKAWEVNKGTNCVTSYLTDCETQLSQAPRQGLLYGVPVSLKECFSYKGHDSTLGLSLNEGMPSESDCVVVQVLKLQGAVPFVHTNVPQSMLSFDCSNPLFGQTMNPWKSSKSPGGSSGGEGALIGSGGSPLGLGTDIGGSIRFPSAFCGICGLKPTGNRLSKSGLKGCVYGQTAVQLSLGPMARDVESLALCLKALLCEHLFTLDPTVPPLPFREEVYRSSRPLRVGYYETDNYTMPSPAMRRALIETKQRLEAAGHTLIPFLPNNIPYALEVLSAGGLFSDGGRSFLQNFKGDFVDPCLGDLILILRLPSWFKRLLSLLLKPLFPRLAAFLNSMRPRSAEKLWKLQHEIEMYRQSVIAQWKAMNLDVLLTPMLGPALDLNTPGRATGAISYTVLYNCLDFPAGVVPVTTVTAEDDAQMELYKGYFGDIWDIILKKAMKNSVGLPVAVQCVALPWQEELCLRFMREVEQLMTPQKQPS
Briefly: oleamide hydrolase activity of rat FAAH-transfected COS-7 cell extract and its inhibition (TLC). The following applies: versus untransfected and control transfected cells. In kind it is biochemical. As to the method: The following thin layer chromatography (TLC) protocol is used for assaying cis-9,10 octadecenoamide hydrolysis activity, also referred to as fatty-acid amide hydrolase activity. Oleamide is first labeled with ^14C. To accomplish this, ^14C-Oleic acid (1-10 μM, Moravek Biochemicals, 5-50 μCi/μM) in CH2CL2 (200 μL, 0.005-0.05 M) at 0° C. was treated with excess oxalyl chloride and the reaction mixture was warmed to 25° C. for 6 hours. The reaction mixture was then concentrated under a constant stream of gaseous nitrogen and the remaining residue was cooled to 0° C. and treated with excess saturated aqueous ammonium hydroxide. After 5 minutes, the reaction mixture was partitioned between Et)Ac (1.5 mL) and 10% HCl (1.0 mL). The organic layer was then washed with water (1.0 mL) and concentrated under a constant stream of gaseous nitrogen to provide ^14C-oleamide in quantitative yield as judged by TLC (60% EtOAc in hexanes; oleamide Rf−0.2; oleic acid Rf−0.8). […]
While untransfected COS-7 cells contained negligible amounts of oleamide hydrolase activity, COS-7 cells transfected with the rat FAAH cDNA expressed high levels of oleamide hydrolase activity (FIG. 15A). The assay was performed as described in Section B where by TLC the conversion of oleamide to oleic acid was assessed. […]

The target of assay [1] is T2, human recombinant expressed FAAH (Homo sapiens, UniProt O00519).
T2 construct: expressed in transfected cells; host or cells: COS-7 cells, transient, pcDNA3; dounce-homogenised cell extract
T2 sequence (O00519 1-579): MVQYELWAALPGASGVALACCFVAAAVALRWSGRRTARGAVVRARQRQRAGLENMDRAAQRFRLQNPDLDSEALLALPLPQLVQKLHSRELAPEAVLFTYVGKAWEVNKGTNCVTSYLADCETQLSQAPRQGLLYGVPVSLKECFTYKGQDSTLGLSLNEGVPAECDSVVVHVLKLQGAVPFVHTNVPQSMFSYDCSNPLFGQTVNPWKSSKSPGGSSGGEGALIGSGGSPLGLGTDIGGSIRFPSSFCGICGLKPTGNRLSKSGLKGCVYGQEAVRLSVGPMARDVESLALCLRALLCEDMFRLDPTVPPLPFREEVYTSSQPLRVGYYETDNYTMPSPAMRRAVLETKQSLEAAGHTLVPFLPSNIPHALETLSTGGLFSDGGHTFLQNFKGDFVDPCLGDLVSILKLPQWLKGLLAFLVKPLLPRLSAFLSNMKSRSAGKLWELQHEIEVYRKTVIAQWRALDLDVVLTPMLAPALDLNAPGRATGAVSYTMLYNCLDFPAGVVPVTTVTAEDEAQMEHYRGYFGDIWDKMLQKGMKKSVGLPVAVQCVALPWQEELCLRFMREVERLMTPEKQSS
Description: oleamide hydrolysis by COS-7 cells transfected with human oleamide hydrolase (TLC). In kind it is biochemical. As to conditions: versus control COS-7 cells. As to the method:
For preparing the rat, mouse and human FAAH recombinant protein, the corresponding FAAH cDNAs were excised from the Bluescript II vectors and separately ligated into the eukaryotic expression vector, pcDNA3 (Invitrogen, San Diego, Calif.). 100 mm dishes of COS-7 cells were grown at 37° C. to 70% confluency in complete medium (DMEM with L-glutamine, non-essential amino acids, sodium pyruvate and fetal bovine serum). The COS-7 cells were then washed with serum-free medium and treated with 5 ml of transfection solution (5-6 μg of FAAH-pcDNA3 vector were preincubated with transfectamine (Gibco-BRL) for 30 minutes in 1 ml of serum free medium, then diluted to a final volume of 5 ml with serum free medium). The COS-7 cells were incubated at 37° C. for 5 hours, at which point 10 ml of complete medium was added to the cells and incubation was continued at 37° C. for 12 hours. The transfection solution was then aspirated away from the COS-7 cells, and the cells were incubated in a fresh batch of complete medium for another 24 hours. […]
While untransfected COS-7 cells contained negligible amounts of oleamide hydrolase activity, COS-7 cells transfected with the rat FAAH cDNA expressed high levels of oleamide hydrolase activity (FIG. 15A). The assay was performed as described in Section B where by TLC the conversion of oleamide to oleic acid was assessed.

This note sets out measurements from patent US6699682B2, “Assay for inhibitors of fatty-acid amide hydrolase” (The Scripps Research Institute, priority 1995, dated 2004).

As for `CCCCCCCC/C=C\CCCCCCCC(N)=O` [cis-9,10-octadecenoamide, Cis-9,10-octadecenoamide], at recombinant rat FAAH, the “conversion of labeled substrate by rat FAAH-transfected COS-7 cells (qualitative, TLC)” value is given as “effective at converting labeled oleamide to oleic acid”. The “conversion of oleamide to oleic acid by human FAAH-transfected COS-7 cells (qualitative, TLC)” value in assay [1] is recorded as “conversion to oleic acid is seen only in lane 2”.
